The assay has as its system turkey poults of stock BUT 9. Description: Free-choice feed consumption test in 6 day turkey poults. Format: in vivo. The following applies: per cage of 5 turkey poults. The source says: Test item no. 2 therefore comprises 0.05% of olfactory additive for 99.95% of methionine hydroxyl-analog. The test items are incorporated into a mixture of maize and soya, which is used as basic feed. The experimental plan is the following: [table] 150 turkey poults of stock BUT 9 are selected and placed in cages fitted out with a water bowl and two feeders with a capacity of about 0.3 kg. 5 turkey poults are placed per cage. The animals receive during the pre-experimental period (i.e. from D0to D6, 8.00am), an identical standard starting feed. During the experimental phase (i.e. D6 from 8am to 5pm), the animals are separated into three groups 10 A, B and C. For each group and each cage of this group, the animals have the choice between two test items. For example the animals of group A may choose between test item no. 3 and test item no. 1. Feeding is ad libitum with checking of consumption at […]. Furthermore, at each measuring time, the two feeders are interchanged in order to prevent the animals from being accustomed to the positioning of the feeders. […] The illustrated consumption is the consumption per cage, i.e. for 5 turkey poults. This consumption satisfies the following formula: (weight of the feeder at the end of the period)-(weight of the feeder at the beginning of the period). Averages are performed for each group over 12 cages.

As for `CSCC[C@H](N)C(=O)O` [Test item no. 3, methionine], the “Consumption, Average” value is given as 6.8 g (T0 + 1 h, group A: choice test item no. 3 (0.2%) vs no. 1 (0.23%)); 9.1 g (T0 + 1 h, group B: choice test item no. 3 (0.2%) vs no. 2 (0.23%), no. 2 = hydroxy analog + 0.5 g/kg olf. additive); 15.5 g (T0 + 3 h, group A: choice test item no. 3 (0.2%) vs no. 1 (0.23%)); 14.9 g (T0 + 3 h, group B: choice test item no. 3 (0.2%) vs no. 2 (0.23%)); 23.3 g (T0 + 5 h, group A: choice test item no. 3 (0.2%) vs no. 1 (0.23%)); 22.6 g (T0 + 5 h, group B: choice test item no. 3 (0.2%) vs no. 2 (0.23%)). For the same compound, the “Consumption, Average” value is, setting by setting: (T0 + 7 h, group A: choice test item no. 3 (0.2%) vs no. 1 (0.23%)) 30.3 g; (T0 + 7 h, group B: choice test item no. 3 (0.2%) vs no. 2 (0.23%)) 30.0 g; (T0 + 9 h, group A: choice test item no. 3 (0.2%) vs no. 1 (0.23%)) 37.7 g; (T0 + 9 h, group B: choice test item no. 3 (0.2%) vs no. 2 (0.23%)) 36.8a g.
